What all share (assay): two-electrode voltage clamp, micro-transplanted oocytes
Holding throughout (format): cell-based
Background: Two-electrode voltage clamp is typically applied to oocytes expressing channels or transporters.

For assay [1], the target named is AMPA receptor with TARP gamma-8 (native, rat hippocampal synaptosomes) (Rattus norvegicus, UniProt P19490+P19491+Q8VHW5). The note with it: read-out: % inhibition at 10 μM.
Assay [2] deals with NMDA receptor (native synaptic, rat prefrontal cortex synaptosomes). Conditions: 300 µM NMDA, 30 µM glycine, -100 mV, pH 7.4.
Assay [3] relates to AMPA receptor (native synaptic, human cortical synaptosomes). The note with it: antagonist; 100 µM AMPA + 100 µM cyclothiazide; -100 mV, pH 7.4.
Assay [4] has as its system AMPA receptor (native synaptic, rat prefrontal cortex synaptosomes). The note with it: antagonist; 100 µM AMPA + 30 µM cyclothiazide; -100 mV, pH 7.4.
Assay [5] deals with GABAA receptor (native synaptic, human cortical synaptosomes). The note with it: positive allosteric modulator; 30 µM GABA; legend says 212% potentiation.

Structures are written as SMILES.

Sequence of AMPA receptor with TARP gamma-8 (native, rat hippocampal synaptosomes) (Q8VHW5 whole entry): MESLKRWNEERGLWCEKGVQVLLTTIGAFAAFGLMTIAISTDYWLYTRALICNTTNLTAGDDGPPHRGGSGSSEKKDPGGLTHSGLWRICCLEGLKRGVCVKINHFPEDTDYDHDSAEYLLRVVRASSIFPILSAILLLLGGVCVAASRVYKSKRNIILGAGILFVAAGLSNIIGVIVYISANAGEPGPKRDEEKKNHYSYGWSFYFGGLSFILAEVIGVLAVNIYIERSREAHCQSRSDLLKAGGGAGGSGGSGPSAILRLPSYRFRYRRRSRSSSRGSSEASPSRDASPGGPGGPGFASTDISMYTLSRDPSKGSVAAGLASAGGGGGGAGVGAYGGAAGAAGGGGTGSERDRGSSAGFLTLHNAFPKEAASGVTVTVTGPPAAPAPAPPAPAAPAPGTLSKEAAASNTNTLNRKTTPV
Sequence of AMPA receptor with TARP gamma-8 (native, rat hippocampal synaptosomes) (P19490 19-907): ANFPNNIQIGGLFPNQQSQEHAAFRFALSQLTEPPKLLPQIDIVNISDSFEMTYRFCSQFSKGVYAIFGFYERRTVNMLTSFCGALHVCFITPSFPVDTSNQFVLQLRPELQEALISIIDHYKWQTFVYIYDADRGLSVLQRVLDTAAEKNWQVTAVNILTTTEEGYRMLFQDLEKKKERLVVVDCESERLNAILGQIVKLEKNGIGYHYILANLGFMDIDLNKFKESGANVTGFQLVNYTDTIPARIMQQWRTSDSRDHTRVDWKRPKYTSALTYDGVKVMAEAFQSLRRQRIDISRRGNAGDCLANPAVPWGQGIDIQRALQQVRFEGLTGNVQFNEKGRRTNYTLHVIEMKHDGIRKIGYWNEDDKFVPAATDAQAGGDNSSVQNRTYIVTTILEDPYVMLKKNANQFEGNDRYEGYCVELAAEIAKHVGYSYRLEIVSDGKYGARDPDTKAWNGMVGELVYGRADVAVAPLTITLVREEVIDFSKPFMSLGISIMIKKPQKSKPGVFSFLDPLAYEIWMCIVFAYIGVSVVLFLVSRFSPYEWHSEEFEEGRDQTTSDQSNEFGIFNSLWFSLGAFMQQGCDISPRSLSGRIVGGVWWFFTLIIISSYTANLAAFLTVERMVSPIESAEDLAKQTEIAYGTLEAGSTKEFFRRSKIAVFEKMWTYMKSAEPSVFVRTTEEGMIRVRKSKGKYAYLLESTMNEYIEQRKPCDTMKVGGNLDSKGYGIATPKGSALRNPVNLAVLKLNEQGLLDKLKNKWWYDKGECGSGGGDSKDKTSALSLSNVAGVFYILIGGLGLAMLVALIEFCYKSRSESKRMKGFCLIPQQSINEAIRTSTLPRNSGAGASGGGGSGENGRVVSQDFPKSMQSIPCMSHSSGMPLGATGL
Sequence of AMPA receptor with TARP gamma-8 (native, rat hippocampal synaptosomes) (P19491 22-883): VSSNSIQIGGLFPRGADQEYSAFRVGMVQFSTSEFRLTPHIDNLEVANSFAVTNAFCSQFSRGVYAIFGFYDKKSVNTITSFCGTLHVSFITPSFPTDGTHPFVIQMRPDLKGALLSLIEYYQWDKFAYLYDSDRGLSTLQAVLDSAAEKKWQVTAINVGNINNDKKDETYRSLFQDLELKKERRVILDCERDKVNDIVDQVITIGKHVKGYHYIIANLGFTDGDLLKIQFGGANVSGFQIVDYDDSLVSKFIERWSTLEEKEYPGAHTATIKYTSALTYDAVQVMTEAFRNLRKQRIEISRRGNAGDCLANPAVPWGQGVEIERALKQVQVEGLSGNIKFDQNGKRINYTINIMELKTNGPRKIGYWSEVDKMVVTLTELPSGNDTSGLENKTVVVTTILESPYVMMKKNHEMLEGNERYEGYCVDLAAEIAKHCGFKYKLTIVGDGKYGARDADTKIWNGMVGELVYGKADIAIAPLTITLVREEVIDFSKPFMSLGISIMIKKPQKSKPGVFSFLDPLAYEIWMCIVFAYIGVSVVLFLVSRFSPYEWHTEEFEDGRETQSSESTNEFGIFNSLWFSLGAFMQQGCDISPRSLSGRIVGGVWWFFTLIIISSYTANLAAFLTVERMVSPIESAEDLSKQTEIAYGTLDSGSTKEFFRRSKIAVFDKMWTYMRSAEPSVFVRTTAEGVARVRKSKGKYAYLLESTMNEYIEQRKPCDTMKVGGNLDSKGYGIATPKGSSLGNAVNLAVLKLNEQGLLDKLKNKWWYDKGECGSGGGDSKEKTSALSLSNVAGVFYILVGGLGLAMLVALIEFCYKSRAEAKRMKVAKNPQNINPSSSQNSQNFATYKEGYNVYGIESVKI

In the case of `C[C@@H](c1ccc2[nH]c(=O)sc2c1)c1ccn(-c2ccc(OCCO)cn2)n1` [LY3130481], the inhibition – broadly, the relative decrease from the control value, in per cent – at 10 µM in assay [1] turned out to be 55 ± 6.8%.
Regarding `C[C@]12N[C@H](Cc3ccccc31)c1ccccc12` [MK801], the % inhibition (commonly the drop in the measured response relative to a control, in per cent) at 1 μM in assay [2] (non-competitive antagonist) was determined as 100%.
Turning to `CC(C(O)c1ccc(O)cc1)N1CCC(Cc2ccccc2)CC1` (stereo not drawn) [ifenprodil], the “% inhibition at 10 μM” value in assay [2] (GluN2B-selective antagonist) was 75%.
As to `N#Cc1ccccc1-c1cc(-c2ccccn2)cn(-c2ccccc2)c1=O` [perampanel], the results for the “% inhibition at 30 μM” value in assay [3] and in assay [4] were 91% and 97%, respectively.
Regarding `Cc1ccc(-c2nc3ccc(C)cn3c2CC(=O)N(C)C)cc1` [zolpidem], the “% of control at 1 μM” value in assay [5] is 212%.

Source of the values: article PMC4961579 (Journal of neurochemistry, 2016).
